Measurements reported in PMC2120320 (The Journal of Cell Biology, 1994).

Columns and labels:
[1] = test system: dynein-driven microtubule sliding in spoke-deficient axonemes; assay: Microtubule sliding velocity in spoke-deficient axonemes; assay type: biochemical, Chlamydomonas reinhardtii; settings: for effect on velocity of microtubule sliding: spoke-deficient mutants (pf14, pf17)
[2] = test system: dynein-driven microtubule sliding in wild-type 137c axonemes; assay: Microtubule sliding velocity in wild-type; assay type: biochemical, Chlamydomonas reinhardtii
[3] = target: cyclic nucleotide-dependent kinases; settings: inhibition of cyclic nucleotide-dependent kinases; ref Hidaka et al., 1984; cited from earlier work
[4] = target: protein kinase C; settings: ref Hidaka et al., 1984; cited from earlier work
[5] = target: myosin light chain kinase; settings: ref Hidaka et al., 1984; cited from earlier work
[6] = target: PKI-sensitive kinase activity; settings: demembranated ram sperm, treatment with cAMP; ref San Agustin and Witman, 1994; cited from earlier work
[7] = test system: dynein-driven microtubule sliding in pf14 axonemes; assay: Microtubule sliding velocity in isolated pf14 axonemes; assay type: biochemical, Chlamydomonas reinhardtii; settings: pf14, 10 μM cAMP alone (Fig. 4), mean from 20 measurements
[8] = test system: catalytic subunit of cAPK; settings: demembranated rat sperm; ref Horowitz et al., 1984; cited from earlier work
[9] = test system: pf17 axonemes; assay: In vitro reactivation of beating of pf17 axonemes; assay type: biochemical, Chlamydomonas reinhardtii; settings: pf17 axonemes with PKI, preliminary experiments
[10] = test system: inner arm dyneins; assay type: biochemical, Chlamydomonas reinhardtii
[11] = test system: dynein-driven microtubule sliding in pf18 axonemes; assay: Microtubule sliding velocity in pf18 axonemes; assay type: biochemical, Chlamydomonas reinhardtii; settings: pf18, 100 nM PKI; Habermacher, G., unpublished results
[12] = test system: dynein-driven microtubule sliding in pf14pf28 axonemes; assay: Microtubule sliding velocity in pf14pf28 axonemes; assay type: biochemical, Chlamydomonas reinhardtii
[13] = target: cAMP-dependent protein kinase (cAPK); settings: ref Glass et al., cited from earlier work
[14] = test system: dynein-driven microtubule sliding in pf17 axonemes; assay: Microtubule sliding velocity in isolated pf17 axonemes; assay type: biochemical, Chlamydomonas reinhardtii

CC1CNCCN1S(=O)(=O)c1cccc2cnccc12 (centres unmarked) [H-7]
effect on sliding velocity ([1]; H-7, spoke-deficient axonemes, data not shown): increases
effect on velocity of microtubule sliding [1]: increased to wild-type level

Cl.N=C(N)NCCNS(=O)(=O)c1cccc2cnccc12 [HA-1004, N-(2-guanidinoethyl)-5-isoquinolinesulfonamide hydrochloride]
effect on microtubule sliding velocity ([2]; wild-type, 15 μM HA-1004, not shown): had no effect
dose dependence of sliding velocity stimulation ([1]; spoke-deficient axonemes): dose dependent
effect on velocity of microtubule sliding [1]: increased to wild-type level
Ki [3]: 1 to 3 µM
Ki [4]: 40 µM
Ki [5]: 150 µM

Nc1ncnc2c1ncn2[C@@H]1O[C@@H]2COP(=O)(O)O[C@H]2[C@H]1O [cAMP]
PKI-sensitive kinase activity remaining bound after cAMP [6]: ≤ 50%
effect on microtubule sliding velocity [7]: had no effect
release of catalytic activity [8]: releases most of the catalytic activity
effect on RII-induced increase in sliding ([1]; 10 μM cAMP added to spokeless axonemes reconstituted with RII): reversed the effect of RII

RII: regulatory subunit of bovine cardiac type II cAPK (Promega)
effect of RII on microtubule sliding ([1]; spoke-deficient axonemes, type-II regulatory subunit of cAPK): increased microtubule sliding to wild-type velocity

Thr-Tyr-Ala-Asp-Phe-Ile-Ala- Ser-Gly-Arg-Thr-Gly-A_rg-Arg-Aan-Ala-Ile-NH2 [PKI, PKI(6-22)amide]
effect on microtubule sliding velocity ([2]; wild-type 137c, 0-200 nM PKI (Fig. 2b)): did not affect
reactivation of in vitro beating [9]: unable to reactivate
dose dependence of sliding velocity stimulation ([1]; spoke-deficient axonemes): dose-dependent
effect on velocity of microtubule sliding [1]: increased to wild-type level
sliding velocity with control dynein on extracted PKI-treated axonemes (PKIAxos) ([10]; pf14pf28, 100 nM PKI (Fig. 6), two experiments pooled): only slow
sliding velocity of PKI-treated axonemes before extraction vs control axonemes ([10]; pf14pf28, 100 nM PKI, Pre-Extr (Fig. 6), P < 0.05): significantly greater
effect on velocity of microtubule sliding [11]: significantly increased to wild-type levels
effect on microtubule sliding velocity ([12]; pf14pf28, 100 nM PKI (Fig. 5), P < 0.001): significantly increased
effect on microtubule sliding vs pf28 control velocity ([12]; pf14pf28, PKI): increased microtubule sliding to control (pf28) velocity
Ki ([13]; inhibition of cAPK, 1989): 0.0016 to 0.0025 µM
specificity of cAPK inhibition [13]; 1986: high degree of specificity
efficacy of PKI versus NAcPKI ([14]; pf17, 100 nM (Fig. 2a)): no detectable difference
effect on microtubule sliding velocity ([14]; pf17, 100 nM peptide (Fig. 2a), PKI and NAcPKI P < 0.01 vs control or triAlaPKI): significantly increased
